Calls of active or inactive are those of the source. No rule for the calls is given here.

Experimental findings from PubChem BioAssay AID1259407 (Chemical Carcinogenesis Research Information System (CCRIS), 2018) are described below.

The data set concerns CCRIS mutagenicity, Ames/micronucleus/aberration tests. Briefly: CCRIS mutagenicity studies.
The mark [1] stands for this setting: Test System: AMES SALMONELLA TYPHIMURIUM, Strain/Indicator: TA98, Metabolic Activation: HAMSTER, LIVER, S-9, AROCLOR 1254 (10%), Method: PREINCUBATION
Where [2] appears, read: Test System: AMES SALMONELLA TYPHIMURIUM, Strain/Indicator: TA98, Metabolic Activation: NONE, Method: PREINCUBATION
[3] abbreviates: Test System: AMES SALMONELLA TYPHIMURIUM, Strain/Indicator: TA98, Metabolic Activation: RAT, LIVER, S-9, AROCLOR 1254 (10%), Method: PREINCUBATION
Setting [4] is: Test System: AMES SALMONELLA TYPHIMURIUM, Strain/Indicator: TA100, Metabolic Activation: HAMSTER, LIVER, S-9, AROCLOR 1254 (10%), Method: PREINCUBATION
Setting [5] is: Test System: AMES SALMONELLA TYPHIMURIUM, Strain/Indicator: TA100, Metabolic Activation: NONE, Method: PREINCUBATION
Setting [6] is: Test System: AMES SALMONELLA TYPHIMURIUM, Strain/Indicator: TA100, Metabolic Activation: RAT, LIVER, S-9, AROCLOR 1254 (10%), Method: PREINCUBATION
The mark [7] stands for this setting: Test System: AMES SALMONELLA TYPHIMURIUM, Strain/Indicator: TA100, Metabolic Activation: NONE, Method: STANDARD PLATE.

As to `c1ccc(Nc2ccc3ccccc3c2)cc1`, the mutagenic call runs as follows: (End Point: IN VITRO CHROMOSOMAL ABERRATIONS, Test System: CHINESE HAMSTER LUNG CELLS (CHL), Metabolic Activation: NONE) “inactive; negative”; (End Point: IN VITRO CHROMOSOMAL ABERRATIONS, Test System: CHINESE HAMSTER LUNG CELLS (CHL), Metabolic Activation: RAT, LIVER, S-9, KC-400) “active; positive (structural changes)”; (End Point: IN VITRO CHROMOSOMAL ABERRATIONS, Test System: CHINESE HAMSTER OVARY CELLS (CHO), Metabolic Activation: NONE) “inactive; negative”; (End Point: IN VITRO CHROMOSOMAL ABERRATIONS, Test System: CHINESE HAMSTER OVARY CELLS (CHO), Metabolic Activation: RAT, LIVER, S-9, AROCLOR 1254) “inactive; negative”; (End Point: IN VITRO CHROMOSOMAL ABERRATIONS, Test System: CHO CELLS, Metabolic Activation: NONE) “inactive; negative”; (End Point: IN VITRO CHROMOSOMAL ABERRATIONS, Test System: CHO CELLS, Metabolic Activation: RAT, LIVER, S-9, AROCLOR 1254) “inactive; negative”. Also, the mutagenic call (Test System: AMES SALMONELLA TYPHIMURIUM, Strain/Indicator: TA97, Metabolic Activation: HAMSTER, LIVER, S-9, AROCLOR 1254 (10%), Method: PREINCUBATION) is “inactive; negative”; the mutagenic call (Test System: AMES SALMONELLA TYPHIMURIUM, Strain/Indicator: TA97, Metabolic Activation: HAMSTER, LIVER, S-9, AROCLOR 1254 (30%), Method: PREINCUBATION) is “inactive; negative”; the mutagenic call (Test System: AMES SALMONELLA TYPHIMURIUM, Strain/Indicator: TA97, Metabolic Activation: HAMSTER, LIVER, S-9, AROCLOR 1254, Method: PREINCUBATION) is “inactive; negative”; the mutagenic call (Test System: AMES SALMONELLA TYPHIMURIUM, Strain/Indicator: TA97, Metabolic Activation: NONE, Method: PREINCUBATION) was “inactive; negative”; the mutagenic call (Test System: AMES SALMONELLA TYPHIMURIUM, Strain/Indicator: TA97, Metabolic Activation: RAT, LIVER, S-9, AROCLOR 1254 (10%), Method: PREINCUBATION) was “inactive; negative”; the mutagenic call (Test System: AMES SALMONELLA TYPHIMURIUM, Strain/Indicator: TA97, Metabolic Activation: RAT, LIVER, S-9, AROCLOR 1254 (30%), Method: PREINCUBATION) is “inactive; negative”. Further, the mutagenic call is “inactive; negative” (Test System: AMES SALMONELLA TYPHIMURIUM, Strain/Indicator: TA97, Metabolic Activation: RAT, LIVER, S-9, AROCLOR 1254, Method: PREINCUBATION); “inactive; negative” under setting [1]; “inactive; negative” (Test System: AMES SALMONELLA TYPHIMURIUM, Strain/Indicator: TA98, Metabolic Activation: HAMSTER, LIVER, S-9, AROCLOR 1254 (30%), Method: PREINCUBATION); “inactive; negative” (Test System: AMES SALMONELLA TYPHIMURIUM, Strain/Indicator: TA98, Metabolic Activation: HAMSTER, LIVER, S-9, AROCLOR 1254, Method: PREINCUBATION); “inactive; negative” under setting [2]; “inactive; negative” under setting [3]. Further, the mutagenic call runs as follows: (Test System: AMES SALMONELLA TYPHIMURIUM, Strain/Indicator: TA98, Metabolic Activation: RAT, LIVER, S-9, AROCLOR 1254 (30%), Method: PREINCUBATION) “inactive; negative”; (Test System: AMES SALMONELLA TYPHIMURIUM, Strain/Indicator: TA98, Metabolic Activation: RAT, LIVER, S-9, AROCLOR 1254, Method: PREINCUBATION) “inactive; negative”; under setting [4], “inactive; negative”; (Test System: AMES SALMONELLA TYPHIMURIUM, Strain/Indicator: TA100, Metabolic Activation: HAMSTER, LIVER, S-9, AROCLOR 1254 (30%), Method: PREINCUBATION) “inactive; negative”; (Test System: AMES SALMONELLA TYPHIMURIUM, Strain/Indicator: TA100, Metabolic Activation: HAMSTER, LIVER, S-9, AROCLOR 1254, Method: PREINCUBATION) “inactive; negative”; under setting [5], “inactive; negative”. Besides, the mutagenic call was “inactive; negative” under setting [6]; “inactive; negative” (Test System: AMES SALMONELLA TYPHIMURIUM, Strain/Indicator: TA100, Metabolic Activation: RAT, LIVER, S-9, AROCLOR 1254 (30%), Method: PREINCUBATION); “inactive; negative” (Test System: AMES SALMONELLA TYPHIMURIUM, Strain/Indicator: TA100, Metabolic Activation: RAT, LIVER, S-9, AROCLOR 1254, Method: PREINCUBATION); “inactive; negative” (Test System: AMES SALMONELLA TYPHIMURIUM, Strain/Indicator: TA1535, Metabolic Activation: HAMSTER, LIVER, S-9, AROCLOR 1254 (10%), Method: PREINCUBATION); “inactive; negative” (Test System: AMES SALMONELLA TYPHIMURIUM, Strain/Indicator: TA1535, Metabolic Activation: HAMSTER, LIVER, S-9, AROCLOR 1254 (30%), Method: PREINCUBATION); “inactive; negative” (Test System: AMES SALMONELLA TYPHIMURIUM, Strain/Indicator: TA1535, Metabolic Activation: HAMSTER, LIVER, S-9, AROCLOR 1254, Method: PREINCUBATION). For the same molecule, the mutagenic call was “inactive; negative” (Test System: AMES SALMONELLA TYPHIMURIUM, Strain/Indicator: TA1535, Metabolic Activation: NONE, Method: PREINCUBATION); “inactive; negative” (Test System: AMES SALMONELLA TYPHIMURIUM, Strain/Indicator: TA1535, Metabolic Activation: RAT, LIVER, S-9, AROCLOR 1254 (10%), Method: PREINCUBATION); “inactive; negative” (Test System: AMES SALMONELLA TYPHIMURIUM, Strain/Indicator: TA1535, Metabolic Activation: RAT, LIVER, S-9, AROCLOR 1254 (30%), Method: PREINCUBATION); “inactive; negative” (Test System: AMES SALMONELLA TYPHIMURIUM, Strain/Indicator: TA1535, Metabolic Activation: RAT, LIVER, S-9, AROCLOR 1254, Method: PREINCUBATION); “inactive; negative” (Test System: MOUSE LYMPHOMA, Strain/Indicator: L5178Y (TK+/TK-), Metabolic Activation: NONE, Method: SUSPENSION/PLATE); “active; positive” (Test System: MOUSE LYMPHOMA, Strain/Indicator: L5178Y (TK+/TK-), Metabolic Activation: RAT, LIVER, S-9, AROCLOR 1254, Method: SUSPENSION/PLATE).
`COC(=O)C1CSC2C(Cl)=C(Cl)C(=O)N12` (stereo unspecified): under setting [7], the mutagenic call is “active; positive”.
Still for that read-out and setting: the value for `CC(C)OC(=O)/C(Cl)=C(/Cl)C=O` was “active; positive”.
`c1ccc2c(c1)-c1cccc3c1c-2cc1ccccc13`: the mutagenic call runs as follows: under setting [1], “active; positive”; (Test System: AMES SALMONELLA TYPHIMURIUM, Strain/Indicator: TA98, Metabolic Activation: MOUSE, LIVER, S-9, AROCLOR 1254, Method: STANDARD PLATE) “active; positive”; under setting [2], “inactive; negative”; under setting [3], “inactive; negative”; under setting [4], “active; positive”; under setting [5], “inactive; negative”. Also, the mutagenic call is “active; positive” (Test System: AMES SALMONELLA TYPHIMURIUM, Strain/Indicator: TA100, Metabolic Activation: RAT, LIVER, S-9, AROCLOR 1254); “active; positive” under setting [6]; “active; positive” (Test System: AMES SALMONELLA TYPHIMURIUM, Strain/Indicator: TA100, Metabolic Activation: RAT, LIVER, S-9, AROCLOR 1254, Method: STANDARD PLATE).
As to `Nc1c2ccccc2nc2ccc(O)cc12`, the mutagenic call (Test System: AMES SALMONELLA TYPHIMURIUM, Strain/Indicator: TA1537, Metabolic Activation: NONE, Method: PREINCUBATION) is “active; positive”.
For `CCC(=O)N=c1sn(C(=O)CC)c2ccc([N+](=O)[O-])cc12`, the mutagenic call (Test System: AMES SALMONELLA TYPHIMURIUM, Strain/Indicator: TA100, Metabolic Activation: S-9, Method: STANDARD PLATE) is “active; positive”.
Turning to `O[C@H]1[C@H]2O[C@H]2c2ccc3c(ccc4ccccc43)c2[C@@H]1O`, the mutagenic call is, setting by setting: under setting [2], “active; positive”; (Test System: CHINESE HAMSTER V-79, Strain/Indicator: V-79/6-THIOGUANINE, Metabolic Activation: NONE) “active; positive”.
